In PubChem BioAssay (NCI):
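Interpolation was linear, between the two tested concentrations surrounding the appropriate level; five concentrations were tested over 48 hours in 96-well plates. Here, GI50 denotes the concentration required for 50% inhibition of growth. TGI is the concentration that stops growth completely.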

Assays:
Assay in all cases: NCI anticancer screen, dose series, 48 h
KM12 colon = system: KM12 colon
UACC-257 melanoma = system: UACC-257 melanoma
OVCAR-4 ovarian = system: OVCAR-4 ovarian
HCT-116 colon = system: HCT-116 colon
IGROV1 ovarian = system: IGROV1 ovarian
MDA-MB-231 breast = system: MDA-MB-231 breast
A549 NSCLC = system: A549 NSCLC
HL-60(TB) leukemia = system: HL-60(TB) leukemia
SF-295 CNS = system: SF-295 CNS
BT-549 breast = system: BT-549 breast
HS 578T breast = system: HS 578T breast
UACC-62 melanoma = system: UACC-62 melanoma
OVCAR-5 ovarian = system: OVCAR-5 ovarian
CCRF-CEM leukemia = system: CCRF-CEM leukemia
COLO 205 colon = system: COLO 205 colon
OVCAR-8 ovarian = system: OVCAR-8 ovarian
HCT-15 colon = system: HCT-15 colon
PC-3 prostate = system: PC-3 prostate
NCI/ADR-RES ovarian = system: NCI/ADR-RES ovarian
MCF7 breast = system: MCF7 breast
MALME-3M melanoma = system: MALME-3M melanoma
K-562 leukemia = system: K-562 leukemia
SNB-75 CNS = system: SNB-75 CNS
LOX IMVI melanoma = system: LOX IMVI melanoma
SK-MEL-5 melanoma = system: SK-MEL-5 melanoma
RXF 393 renal = system: RXF 393 renal
EKVX NSCLC = system: EKVX NSCLC
SK-MEL-28 melanoma = system: SK-MEL-28 melanoma
SF-539 CNS = system: SF-539 CNS
SK-OV-3 ovarian = system: SK-OV-3 ovarian
HOP-62 NSCLC = system: HOP-62 NSCLC
UO-31 renal = system: UO-31 renal
SNB-19 CNS = system: SNB-19 CNS
SR leukemia = system: SR leukemia
A498 renal = system: A498 renal
OVCAR-3 ovarian = system: OVCAR-3 ovarian
NCI-H460 lung = system: NCI-H460 lung
HCC-2998 colon = system: HCC-2998 colon
ACHN renal = system: ACHN renal
NCI-H226 lung = system: NCI-H226 lung
SN12C renal = system: SN12C renal
SF-268 CNS = system: SF-268 CNS
MOLT-4 leukemia = system: MOLT-4 leukemia
HT29 colon = system: HT29 colon
T-47D breast = system: T-47D breast
SW-620 colon = system: SW-620 colon
M14 melanoma = system: M14 melanoma
TK-10 renal = system: TK-10 renal
HOP-92 NSCLC = system: HOP-92 NSCLC
RPMI-8226 leukemia = system: RPMI-8226 leukemia
786-0 renal = system: 786-0 renal
MDA-MB-435 = system: MDA-MB-435
SK-MEL-2 melanoma = system: SK-MEL-2 melanoma
DU-145 prostate = system: DU-145 prostate
U251 CNS = system: U251 CNS
CAKI-1 renal = system: CAKI-1 renal
NCI-H23 lung = system: NCI-H23 lung
NCI-H522 lung = system: NCI-H522 lung

Compound `CC(=O)c1c(C)[nH]c(-c2nc3ccc(N4CCN(C)CC4)cc3[nH]2)c1-c1ccc(N(C)C)cc1` has a GI50 (KM12 colon) of 1340 nM, a TGI (KM12 colon) of 20200 nM and a GI50 (UACC-257 melanoma) of 1030 nM. For the same compound, the TGI (UACC-257 melanoma) was 11000 nM, the GI50 (OVCAR-4 ovarian) was 1170 nM and the TGI (OVCAR-4 ovarian) was 33600 nM. For the same compound, the GI50 (HCT-116 colon) was 803 nM, the TGI (HCT-116 colon) was 13600 nM and the GI50 (IGROV1 ovarian) was 936 nM. The TGI (IGROV1 ovarian) was 12300 nM, the GI50 (MDA-MB-231 breast) was 645 nM and the TGI (MDA-MB-231 breast) was 16900 nM. The GI50 (A549 NSCLC) was 1040 nM, the TGI (A549 NSCLC) was > 48400 nM and the GI50 (HL-60(TB) leukemia) was 118 nM. It also gave a TGI (HL-60(TB) leukemia) of 596 nM, a GI50 (SF-295 CNS) of 1550 nM and a TGI (SF-295 CNS) of 14800 nM. The GI50 (BT-549 breast) was 3050 nM, the TGI (BT-549 breast) was 18600 nM and the GI50 (HS 578T breast) was 396 nM. For the same compound, the TGI (HS 578T breast) was 7230 nM, the GI50 (UACC-62 melanoma) was 175 nM and the TGI (UACC-62 melanoma) was 13000 nM. The GI50 (OVCAR-5 ovarian) was 1800 nM, the TGI (OVCAR-5 ovarian) was > 65000 nM and the GI50 (CCRF-CEM leukemia) was 1160 nM. For the same compound, the TGI (CCRF-CEM leukemia) was > 37700 nM, the GI50 (COLO 205 colon) was 292 nM and the TGI (COLO 205 colon) was 14000 nM. For the same compound, the GI50 (OVCAR-8 ovarian) was 2330 nM, the TGI (OVCAR-8 ovarian) was > 84100 nM and the GI50 (HCT-15 colon) was 478 nM. It also gave a TGI (HCT-15 colon) of 14100 nM, a GI50 (PC-3 prostate) of 894 nM and a TGI (PC-3 prostate) of 66900 nM. For the same compound, the GI50 (NCI/ADR-RES ovarian) was 916 nM, the TGI (NCI/ADR-RES ovarian) was > 100000 nM and the GI50 (MCF7 breast) was 240 nM. For the same compound, the TGI (MCF7 breast) was 7780 nM, the GI50 (MALME-3M melanoma) was 812 nM and the TGI (MALME-3M melanoma) was 5100 nM. It also gave a GI50 (K-562 leukemia) of 461 nM, a TGI (K-562 leukemia) of 8790 nM and a GI50 (SNB-75 CNS) of 45.6 nM. For the same compound, the TGI (SNB-75 CNS) was 1740 nM, the GI50 (LOX IMVI melanoma) was 359 nM and the TGI (LOX IMVI melanoma) was 1850 nM. It also gave a GI50 (SK-MEL-5 melanoma) of 1190 nM, a TGI (SK-MEL-5 melanoma) of 4590 nM and a GI50 (RXF 393 renal) of 486 nM. For the same compound, the TGI (RXF 393 renal) was 2080 nM, the GI50 (EKVX NSCLC) was 4810 nM and the TGI (EKVX NSCLC) was > 100000 nM. The GI50 (SK-MEL-28 melanoma) was 2470 nM, the TGI (SK-MEL-28 melanoma) was 18700 nM and the GI50 (SF-539 CNS) was 1150 nM. For the same compound, the TGI (SF-539 CNS) was 17700 nM, the GI50 (SK-OV-3 ovarian) was 465 nM and the TGI (SK-OV-3 ovarian) was 3650 nM. The GI50 (HOP-62 NSCLC) was 560 nM, the TGI (HOP-62 NSCLC) was 28400 nM and the GI50 (UO-31 renal) was 211 nM. The TGI (UO-31 renal) was 7330 nM, the GI50 (SNB-19 CNS) was 1890 nM and the TGI (SNB-19 CNS) was > 100000 nM. It also gave a GI50 (SR leukemia) of 923 nM, a TGI (SR leukemia) of 6810 nM and a GI50 (A498 renal) of 323 nM. For the same compound, the TGI (A498 renal) was 1980 nM, the GI50 (OVCAR-3 ovarian) was 1170 nM and the TGI (OVCAR-3 ovarian) was 17000 nM. The GI50 (NCI-H460 lung) was 2760 nM, the TGI (NCI-H460 lung) was > 56200 nM and the GI50 (HCC-2998 colon) was 1060 nM. For the same compound, the TGI (HCC-2998 colon) was 8380 nM, the GI50 (ACHN renal) was 773 nM and the TGI (ACHN renal) was 12600 nM. For the same compound, the GI50 (NCI-H226 lung) was 1950 nM, the TGI (NCI-H226 lung) was 32900 nM and the GI50 (SN12C renal) was 1760 nM. For the same compound, the TGI (SN12C renal) was 43100 nM, the GI50 (SF-268 CNS) was 4100 nM and the TGI (SF-268 CNS) was 26800 nM. For the same compound, the GI50 (MOLT-4 leukemia) was 1500 nM, the TGI (MOLT-4 leukemia) was 45200 nM and the GI50 (HT29 colon) was 299 nM. It also gave a TGI (HT29 colon) of 19400 nM, a GI50 (T-47D breast) of 434 nM and a TGI (T-47D breast) of 16600 nM. The GI50 (SW-620 colon) was 2150 nM, the TGI (SW-620 colon) was 25500 nM and the GI50 (M14 melanoma) was 537 nM. The TGI (M14 melanoma) was 13400 nM, the GI50 (TK-10 renal) was 294 nM and the TGI (TK-10 renal) was 15800 nM. The GI50 (HOP-92 NSCLC) was 147 nM, the TGI (HOP-92 NSCLC) was 2530 nM and the GI50 (RPMI-8226 leukemia) was 250 nM. The TGI (RPMI-8226 leukemia) was 1640 nM, the GI50 (786-0 renal) was 1440 nM and the TGI (786-0 renal) was 16700 nM. For the same compound, the GI50 (MDA-MB-435) was 554 nM, the TGI (MDA-MB-435) was 13700 nM and the GI50 (SK-MEL-2 melanoma) was 2580 nM. For the same compound, the TGI (SK-MEL-2 melanoma) was 17600 nM, the GI50 (DU-145 prostate) was 5370 nM and the TGI (DU-145 prostate) was > 83600 nM. For the same compound, the GI50 (U251 CNS) was 2110 nM, the TGI (U251 CNS) was > 65500 nM and the GI50 (CAKI-1 renal) was 309 nM. For the same compound, the TGI (CAKI-1 renal) was 13900 nM, the GI50 (NCI-H23 lung) was 2000 nM and the TGI (NCI-H23 lung) was 21400 nM. For the same compound, the GI50 (NCI-H522 lung) was 606 nM and the TGI (NCI-H522 lung) was 16600 nM.
